Experimental data: paper PMC9635829 (Science Advances, 2022)

What was measured:
OdinAK (AdkA1) [1] = biological target: T1, OdinAK (AdkA1) (Candidatus Odinarchaeum yellowstonii, UniProt A0AAF0D2B2); experiment: ITC; assay type: binding
T1 sequence (A0AAF0D2B2 1-198): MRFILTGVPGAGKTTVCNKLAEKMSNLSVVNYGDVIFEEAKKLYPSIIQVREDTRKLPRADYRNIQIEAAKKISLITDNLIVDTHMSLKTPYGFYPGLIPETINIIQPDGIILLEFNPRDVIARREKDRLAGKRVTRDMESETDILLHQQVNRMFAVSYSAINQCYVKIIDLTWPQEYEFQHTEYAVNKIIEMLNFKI

OdinAK (AdkA1) [2] = biological target: T1, OdinAK (AdkA1); experiment: […] real-time NMR; assay type: biochemical; conditions: 65 °C, 1 mM ATP (or other NTP), 300 μM AMP, 5 mM MgCl2, pH 7.0
OdinAK (AdkA1) [3] = biological target: T1, OdinAK (AdkA1); experiment: X-ray crystal structure; assay type: binding; conditions: ATP/AMP-mimicking inhibitor, spans both substrate sites
[4] = biological target: adenylate kinase from Odinarchaeota (OdinAK), wild type (Odinarchaeota); experiment: SEC-MALS

Molecule | Kd (OdinAK (AdkA1) [1]) [µM] | further results
Nc1nc2c(ncn2[C@@H]2O[C@H](COP(=O)(O)OP(=O)(O)OP(=O)(O)O)[C@@H](O)[C@H]2O)c(=O)[nH]1 [GTP] | 7.2 ± 0.6 | 
Nc1ncnc2c1ncn2[C@@H]1O[C@H](COP(=O)(O)O)[C@@H](O)[C@H]1O [AMP] |  | 31P real-time NMR (OdinAK (AdkA1) [2]): OdinAK can use GTP and all other NTPs as substrate for phosphorylation of AMP
Cc1cn([C@H]2C[C@H](O)[C@@H](COP(=O)(O)OP(=O)(O)OP(=O)(O)O)O2)c(=O)[nH]c1=O [dTTP] | 24.2 ± 8 | 
Nc1ncnc2c1ncn2[C@@H]1O[C@H](COP(=O)(O)OP(=O)(O)O)[C@@H](O)[C@H]1O [ADP] | 0.8 ± 0.1 | 
Nc1ncnc2c1ncn2[C@@H]1O[C@H](COP(=O)(O)OP(=O)(O)OP(=O)(O)OP(=O)(O)OP(=O)(O)OC[C@H]2O[C@@H](n3cnc4c(N)ncnc43)[C@H](O)[C@@H]2O)[C@@H](O)[C@H]1O [Ap5A, P^1,P^5-di(adenosine-5′) pentaphosphate] |  | X-ray crystal structure (OdinAK (AdkA1) [3]): we determined the crystal structure of the enzyme in complex with the tight binding
O=c1ccn([C@@H]2O[C@H](COP(=O)(O)OP(=O)(O)OP(=O)(O)O)[C@@H](O)[C@H]2O)c(=O)[nH]1 [UTP] | 4.6 ± 0.5 | 
Nc1ncnc2c1ncn2[C@@H]1O[C@H](COP(=O)(O)OP(=O)(O)OP(=O)(O)O)[C@@H](O)[C@H]1O [ATP] | 0.3 ± 0.1 | 
adenylate kinase from Odinarchaeota (OdinAK), wild type (enzyme) |  | stoichiometry N [4]: 3
Nc1ccn([C@@H]2O[C@H](COP(=O)(O)OP(=O)(O)OP(=O)(O)O)[C@@H](O)[C@H]2O)c(=O)n1 [CTP] | 28.7 ± 7 | 
